Measured values from patent US5760036A, “Aminediol protease inhibitors” (E. R. Squibb & Sons, Inc., priority 1995, dated 1998).

Assays:
HIV protease = biological target: T1, HIV protease (Human immunodeficiency virus type 1 group M subtype B, UniProt P04585); experiment: HIV Protease Assay; assay type: biochemical; conditions: pH 5.5, 10 μM inhibitor, 4% DMSO, 450 μM substrate, pH 5.5, 30 minutes at 37° C., RP-HPLC; read-out: HIV Protease % Inhibition at 10 μM
T1 construct: and purified protease
How it was run: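 At a single final concentration of 10 μM (4% DMSO), inhibitors were added to a 30-minute, 37° C reaction of purified enzyme with 450 μM H2N-Val-Ser-Gln-Asn-(β-naphthyl-alanine)-Pro-Val-Ile-OH at pH 5.5 (sodium acetate, BSA). Hydrolysis was quantified by reverse-phase HPLC with 220 nm detection after acid quench.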

[1] = test system: RF strain of HIV (CEM-SS cells); experiment: Cell Culture Anti-HIV Activity (cell viability, formazan); assay type: cell-based; conditions: Human immunodeficiency virus 1, CEM-SS, 144 h, CEM-SS cells, RF strain of HIV, multiplicity of infection 0.04, 6 days at 37° C., 450 nm; read-out: HIV (CEM Cells) IC50
Method: The antiviral activity of aminediol inhibitors of the present invention was evaluated by a microculture method which determines the increase in cell viability of an infected culture when a drug is added. The assay depends on the metabolic reduction of tetrazolium reagent by viable cells to yield a soluble colored formazan product.
The assay was performed as follows: suspensions of CEM-SS cells (5000/well) were infected with the RF strain of HIV at a multiplicity of infection at 0.04 in a 96-well plate. The compounds of the present invention listed in the following Table 1, serially diluted in half-log fashion, were added to the infected and uninfected control cells. Untreated (infected and uninfected) cells were included as controls. Following incubation for 6 days at 37° C., viable cells in each well were quantitated by the visible light absorbance at 450 nm.
The IC50 was calculated as the concentration of drug that increased the formazan production in virally infected cells to 50% of that produced by uninfected cells in the absence of drug.

Row | Structure (SMILES) | inhibition at 10 µM (HIV protease) | IC50 [1]
1 | CC(C)[C@H](NC(=O)CCC(=O)Nc1ccccc1)C(=O)N[C@@H](Cc1ccccc1)[C@H](O)CNC[C@@H](O)[C@H](Cc1ccccc1)NC(=O)OC(C)(C)C (relative stereo) [Compound 204, [1R*,2S*(2S*,3R*)]-N-[3-[[3-[[(1,1-Dimethylethoxy)carbonyl]amino]-2-hydroxy-4-phenylbutyl]amino]-2-hydroxy-1-(phenylmethyl)propyl]-N^2-[[1,4-dioxo-4-(phenylamino)butyl]-L-valinamide] | 99% | 170 nM
2 | CC(C)(C)OC(=O)N[C@@H](Cc1ccccc1)[C@H](O)CNC[C@@H](O)[C@H](Cc1ccc(O)cc1)NC(=O)OC(C)(C)CO [Compound 233, [1S-[1R*,2S*(2S*,3R*)]]-[3-[[3-[[(1,1-Dimethylethoxy)carbonyl]amino]-2-hydroxy-4-(4-hydroxyphenyl)butyl]amino]-2-hydroxy-1-(phenylmethyl)propyl]carbamic acid,2-hydroxy-1,1-dimethylethyl ester] | 100% | 1000 nM
3 | CC(C)[C@H](NC(=O)OCc1ccc2ccccc2n1)C(=O)N[C@@H](Cc1ccccc1)[C@H](O)CNC[C@@H](O)[C@H](Cc1ccccc1)NC(=O)OC(C)(C)C (relative stereo) [Compound 281, [1R*,2S*(2S*,3R*)]]-N-[3-[[1,1-Dimethylethoxy)carbonyl]amino]-2-hydroxy-4-phenylbutyl]amino]-2-hydroxy-1-(phenylmethyl)-proyl]-N^2-[(2-quinolinylmethoxy)carbonyl]-L-valinamide] | 100% | 290 nM
4 | CC(C)(C)OC(=O)N[C@@H](Cc1ccccc1)[C@H](O)CNC[C@@H](O)[C@H](Cc1ccccc1)NC(=O)OC1CCCOC1 (stereo partly drawn) [Compound 318, [1S-(1R*,2S*)]-[Iminobis[2-hydroxy-1-(phenylmethyl)-3,1-propanediyl)]bis[carbamic acid], 1,1-dimethylethyl-3-tetrahydropyranyl ester] | 100% | 100 nM
5 | CC(C)[C@H](NC(=O)OCc1ccccc1)C(=O)N[C@@H](Cc1ccccc1)[C@H](O)CNC[C@@H](O)[C@H](Cc1ccccc1)NC(=O)[C@H](CC(N)=O)NC(=O)OC(C)(C)C [Compound 121, [S-[1R*,2S*(2S*.3R*)]]-N^2-[(1-Dimethylethoxy)carbonyl]-N-[2-hydroxy-3-[[2-hydroxy-4-phenyl-3-[[N-[(phenylmethoxy)carbonyl]-L-valyl]amino]butyl]amino]-1-(phenylmethyl)-propyl]-L-asparaginamide] | 73% | > 300 nM
6 | CC(C)C(C)(NC(=O)OCc1ccccc1)C(=O)N[C@@H](Cc1ccccc1)[C@H](O)CNC[C@@H](O)[C@H](Cc1ccccc1)NC(=O)OC(C)(C)C (stereo partly drawn) [Compound 73, [(S,R)-3-[[(R,S)-3-[[2-[[(Phenyl-methoxy)carbonyl)amino]-2,3-dimethyl-1-oxy-butyl]amino]-2-hydroxy-4-phenylbutyl]amino]-2-hydroxy-1-(phenylmethyl)-propyl]carbamic acid, 1,1-dimethylethyl ester] | 99% | 600 nM
7 | CC(C)(C)OC(=O)N[C@@H](Cc1ccccc1)[C@H](O)CNC[C@@H](O)[C@H](Cc1ccccc1O)NC(=O)OC(C)(C)C [Compound 350, [1S-[1R*,2S*(2S*,3R*)]]-[3-[[3-[[(1,1-Dimethylethoxy)carbonyl]amino]-2-hydroxy-4-(2-hydroxyphenyl)butyl]amino]-2-hydroxy-1-(phenylmethyl)propyl]carbamic acid, 1,1-dimethylethyl ester] | 98% | 500 nM
8 | CC(C)[C@H](NC(=O)[C@@H](C)O)C(=O)N[C@@H](Cc1ccccc1)[C@H](O)CNC[C@@H](O)[C@H](Cc1ccccc1)NC(=O)OC(C)(C)C [Compound 221, [1S-[[1R*,2S*(2S*,3R*)],N^2-(S*) ]]-N-[3-[[3-[[(1,1-Dimethylethoxy)carbonyl]amino]-2-hydroxy-4-phenylbutyl]amino]-2-hydroxy-1-(phenylmethyl)propyl]-N^2-(2-hydroxy-1-oxopropyl)-L-valinamide] | 96% | 1100 nM
9 | CC(C)C(NC(=O)OCc1ccccc1)C(=O)NC(Cc1ccccc1)C(O)CNCC(O)C(Cc1ccccc1)NC(=O)C(NC(=O)OCc1ccccc1)C(C)C [Compound 82, [S-[1R*,2R*(2S*,3R*)]]-N-[2-Hydroxy-3-[[2-hydroxy-4-phenyl-3-[[[N-(phenylmethoxy)carbonyl]-L-valyl]amino]butyl]amino]-1-(phenylmethyl)propyl]-N-^2-[(phenylmethoxy)carbonyl]-L-valinamide] | 94% | > 3000 nM

More lines, main results first:

Row | inhibition at 10 µM (HIV protease) | Structure (SMILES) | IC50 [1]
10 | 92% | CC(C)(C)OC(=O)N[C@@H](Cc1ccccc1)[C@H](O)CNC[C@@H](O)[C@H](Cc1ccccc1)NC(=O)C1(NC(=O)OCc2ccccc2)CCCC1 [Compound 87, [1S-[1R*,2S*(2S*,3R*)]]-[2-Hydroxy3-[[2-hydroxy-3-[[[1-[[(phenylmethoxy)-carbonyl]amino]cycloyentyl]carbonyl]amino]-4-phenylbutyl]-amino]-1-(phenylmethyl)propoyl]carbamic acid, 1,1-dimethylethyl ester] | > 880 nM
11 | 0% | CC(C)(C)OC(=O)N[C@@H](Cc1ccccc1)C(O)CN(Cc1ccccc1)CC(O)[C@H](Cc1ccccc1)NC(=O)OC(C)(C)C (stereo partly drawn) [Compound 194, [2S-(2R*,2R*)]-[[(Phenylmethyl)-imino]bis[2-hydroxy-4-phenyl-3,1-butanediyl]]biscarbamic acid, bis(1,1-dimethylethyl)ester] | > 5000 nM
12 | 97% | CC(C)(C)OC(=O)N[C@@H](Cc1ccccc1)[C@H](O)CNC[C@@H](O)[C@H](Cc1ccncc1)NC(=O)OC(C)(C)C [Compound 30, [1S-[1R*,2S*(2S*,3R*)]]-[3-[[3-[[(1,1-Dimethylethoxy)-carbonyl]amino]-2-hydroxy-4-phenylbutyl]amino]-2-hydroxy-1-(4-pyridinylmethyl)propyl]carbamic acid, 1,1-dimethylethyl ester] | 500 nM
13 | 98% | CC(C)[C@H](NC(=O)c1ccc2ccccc2n1)C(=O)N[C@@H](Cc1ccccc1)[C@H](O)CNC[C@@H](O)[C@H](Cc1ccccc1)NC(=O)OC(C)(C)C [Compound 80, [S-[1R*,2S*(2S*,3R*)]]-N-[3-[[3-[[(1,1-Dimethylethoxy)carbonyl]amino]-2-hydroxy-4-phenylbutyl]amino]-2-hydroxy-1-(phenylmethyl)propyl]-N2-(2-quinolinylcarbonyl)-L-valinamide] | 300 nM
14 | 89% | CC(C)(C)OC(=O)N[C@@H](Cc1ccccc1)[C@H](O)CNC[C@@H](O)[C@H](Cc1ccccc1)NC(=O)C1NC(=O)c2ccccc21 (stereo partly drawn) [Compound 223, [1S-[1R*,2S*(2S*,3R*)]]-[3-[[3-[[(2,3-Dihydro-3-oxo-1H-isoindol-1-yl)carbonyl]amino]-2-hydroxy-4-phenylbutyl]amino]-2-hydroxy-1-(phenylmethyl)propyl]carbamic acid, 1,1-dimethylethyl ester] | 1400 nM
15 | 57% | CC(C)[C@H](NC(=O)OC(C)(C)C)C(=O)N[C@@H](Cc1ccccc1)[C@H](O)CNC[C@@H](O)[C@H](Cc1ccccc1)NC(=O)OC(C)(C)C [Compound 58, [S-[1R*,2S*(2S*,3R*)]-N-[3-[[3-[[(1,1-Dimethylethoxy)carbonyl]amino]-2-hydroxy-4-phenylbutyl]amino]-2-hydroxy-1-(phenylmethyl)-propyl-N^2-[(1,1-dimethylethoxy)-carbonyl]-L-valinamide] | 1000 nM
16 | 81% | CC(C)(C)OC(=O)N[C@@H](Cc1ccccc1)[C@H](O)CNC[C@@H](O)[C@H](Cc1ccccc1)NC(=O)OC(C)(C)CCCOCc1ccccc1 [Compound 210, [1S-(1R*,2S*)]-[Iminobis[2-hydroxy-1-(phenylmethyl)-3,1-propanediyl]]biscarbamic acid, 1,1-dimethylethyl-4-(phenylmethoxy)-1,1-dimethylbutyl ester] | > 5000 nM
17 | 72% | CC(C)(C)OC(=O)N[C@@H](Cc1ccccc1)[C@H](O)CNC[C@@H](O)[C@H](Cc1ccccc1)NC(=O)c1ccc2ccccc2c1 [Compound 64, [1S-[1R*,2S*(2S*,3R*)]]-[2-Hydroxy-3-[[2-hydrox-3-[(2-naphthalenyl-carbonyl)amino]-4-phenylbutyl]amino]-1-(phenylmethyl)propyl]carbamic acid, 1,1-dimethylethyl ester] | > 5000 nM
18 | 99% | CC(C)(C)OC(=O)N[C@@H](Cc1ccccc1)[C@H](O)CNC[C@@H](O)[C@H](Cc1ccccc1)NC(=O)[C@H](O)C(C)(C)C [Compound 334, [1S-[1R*,2S*[2S*,3R*(S*)]]]-[3-[[3-[(2-Hydroxy-3,3-dimethyl-1-oxobutyl)amino]-2-hydroxy-4-phenylbutyl]amino]-2-hydroxy-1-(phenylmethyl)propyl]carbamic acid, 1,1-dimethylethyl ester] | 50 nM
